The supplement of paper PMC11061612

Assays:
Experiment in all cases: combination Emax (second highest fraction inhibited in the dose matrix, 72 h); higher = more inhibition; extreme values may be limits of the assay
[1] = system: A375 (Melanoma)
Method in brief: (§1)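 After 24 hours at 37°C and 5% CO2 in 1536-well plates, cells in DMEM/F12 or RPMI plus 10% FBS received two-drug dose matrices for 72 hours. Viability came from CellTiter-Glo 2.0 luminescence and was scaled as inhibition, anchored at 0 by vehicle wells and at 1 by blank wells. Combination Emax is taken as the second-highest inhibition in the matrix, and Bliss excess as the observed combination effect less EA + EB − EA·EB, with EA and EB the single-agent effects.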

[2] = system: C2BBe1 (Colorectal Carcinoma)
Method in brief: as §1

[3] = system: C32 (Melanoma)
Method in brief: as §1

[4] = system: Daudi (Burkitt's Lymphoma)
Method in brief: as §1

[5] = system: HT-1197 (Bladder Carcinoma)
Method in brief: as §1

[6] = system: HT-144 (Melanoma)
Method in brief: as §1

[7] = system: IGROV-1 (Ovarian Carcinoma)
Method in brief: as §1

[8] = system: JJN-3 (Plasma Cell Myeloma)
Method in brief: as §1

[9] = system: MDA-MB-175-VII (Breast Carcinoma)
Method in brief: as §1

[10] = system: MG-63 (Osteosarcoma)
Method in brief: as §1

[11] = system: MRK-nu-1 (Breast Carcinoma)
Method in brief: as §1

[12] = system: NCI-H1648 (Lung Adenocarcinoma)
Method in brief: as §1

[13] = system: NCI-H2009 (Lung Adenocarcinoma)
Method in brief: as §1

[14] = system: NCI-H2023 (Non-Small Cell Lung Carcinoma)
Method in brief: as §1

[15] = system: NCI-H835 (Other Solid Carcinomas)
Method in brief: as §1

[16] = system: NTERA-2-cl-D1 (Other Solid Carcinomas)
Method in brief: as §1

[17] = system: RS4-11 (B-Lymphoblastic Leukemia)
Method in brief: as §1

[18] = system: SW1463 (Colorectal Carcinoma)
Method in brief: as §1

[19] = system: TK (B-Cell Non-Hodgkin's Lymphoma)
Method in brief: as §1

[20] = system: TOV-21G (Ovarian Carcinoma)
Method in brief: as §1

Compound	combination Emax [1]	combination Emax [2]	combination Emax [3]	combination Emax [4]	combination Emax [5]	combination Emax [6]	combination Emax [7]	combination Emax [8]	combination Emax [9]	combination Emax [10]	combination Emax [11]	combination Emax [12]	combination Emax [13]	combination Emax [14]	combination Emax [15]	combination Emax [16]	combination Emax [17]	combination Emax [18]	combination Emax [19]	combination Emax [20]
Cc1cc2ncnn2cc1Nc1ncc2c(n1)n(C1CCOCC1)c(=O)n2C [AZD7648] + C[C@@H]1COCCN1C2=NC(=NC(=C2)C3(CC3)[S@](=N)(=O)C)C4=C5C=CNC5=NC=C4 [AZD6738] (first compound max 10 µM, 7x7, partner max 10 µM)	0.687	0.311	0.649	0.826	0.419	0.753	0.66	0.694	0.341	0.503	0.633	0.779	0.339	0.796	0.389	0.617	0.871	0.543	0.91	0.579
Cc1nc(Nc2ncc(C(=O)Nc3c(C)cccc3Cl)s2)cc(N2CCN(CCO)CC2)n1 [Dasatinib] + CC(=O)Nc1cccc(-n2c(=O)n(C3CC3)c(=O)c3c(Nc4ccc(I)cc4F)n(C)c(=O)c(C)c32)c1 [Trametinib] (first compound max 2 µM, 7x7, partner max 1 µM)	0.794	0.692	0.984	0.635	0.554	0.703	0.956	0.446	0.513	0.734	0.254	0.876	0.916	0.394	0	0.504	0.236	0.786	0.145	0.8
COc1cc2c(cc1OCCCCCOc1cc3c(cc1OC)C(=O)N1C=C(C)C[C@H]1C=N3)N=C[C@@H]1CC(C)=CN1C2=O [SG3199] + O=C(c1cc(Cc2n[nH]c(=O)c3ccccc23)ccc1F)N1CCN(C(=O)C2CC2)CC1 [Olaparib] (first compound max 0.001 µM, 7x7, partner max 10 µM)	0.209	0.0966	0.0494	0.245	0.166	0.232	0.358	0.254	0.0059	0.198	0.223	0.129	0.144	0.173	0.169	0.457	0.591	0.0306	0.184	0.195
C[C@@H](c1ccc2nccn2c1)n1nnc2ncc(-c3cnn(C)c3)nc21 [Savolitinib] + CC1(C)CCC(CN2CCN(c3ccc(C(=O)NS(=O)(=O)c4ccc(NCC5CCOCC5)c([N+](=O)[O-])c4)c(Oc4cnc5[nH]ccc5c4)c3)CC2)=C(c2ccc(Cl)cc2)C1 [Venetoclax] (first compound max 1 µM, 7x7, partner max 1 µM)	0.142	0.0814	0.171	0.109	0.173	0.117	0.152	0.234	0.2	0.238	0.449	0.153	0.204	0.261	0.148	0.257	1	0.247	0.907	0.116
C[C@@H](c1ccc2nccn2c1)n1nnc2ncc(-c3cnn(C)c3)nc21 [Savolitinib] + Cc1c2c(nn1C)CSCc1cc(n(C)n1)CSc1cc(c3ccccc3c1)OCCCc1c(C(=O)O)n(C)c3c-2c(Cl)ccc13 [AZD5991] (first compound max 1 µM, 7x7, partner max 1 µM)	0.182	0.134	0.184	0.196	0.195	0.833	0.157	0.992	0.185	0.257	1	0.453	0.217	0.247	0.177	0.422	0.435	0.255	0.129	0.174
